In the NIST ThermoML archive (doi:10.1016/j.tca.2013.11.010):

Tests used:
[1] = for surface tension liquid-gas: Drop volume; for viscosity / speed of sound / mass density: 101.33 kPa; for viscosity / speed of sound / mass density / vapor or sublimation pressure: Liquid; for viscosity: Capillary tube (Ostwald / Ubbelohde) method; for speed of sound: Sing-around technique in a fixed-path interferometer; for mass density: Vibrating tube method; for vapor or sublimation pressure: Ebulliometric method (Recirculating still)
[2] = refractive index (Na D-line) (dimensionless); conditions: 101.33 kPa, Liquid, Standard Abbe refractometry
[3] = relative permittivity at various frequencies (dimensionless); conditions: 101.3 kPa, Liquid, Frequency=2 MHz, Parallel plate capacitor

CCOC(=O)C(C)O (racemic) [DL-ethyl lactate]
Conditions | mass density, [1] [kg/m3] | refractive index, [2] | relative permittivity, [3] | speed of sound, [1] [m/s] | surface tension liquid-gas, [1] [mN/m] | vapor or sublimation pressure, [1] [kPa] | viscosity, [1] [mPa·s]
278.15 K | 1050.05 | – | 17.791 | 1354.5 | 31.47 | – | 4.479
280.65 K | 1047.37 | – | 17.538 | 1345.2 | 31.21 | – | 4.091
283.15 K | 1044.68 | 1.41751 | 17.219 | 1335.7 | 30.94 | – | 3.75
285.65 K | 1041.96 | 1.41644 | 16.961 | 1326.2 | 30.79 | – | 3.451
288.15 K | 1039.26 | 1.41528 | 16.736 | 1316.8 | 30.43 | – | 3.184
290.65 K | 1036.54 | 1.41414 | 16.496 | 1307.5 | 30.18 | – | 2.947
293.15 K | 1033.82 | 1.41301 | 16.166 | 1298.3 | 29.95 | – | 2.735
295.65 K | 1031.09 | 1.41188 | 15.961 | 1289 | 29.67 | – | 2.546
298.15 K | 1028.37 | 1.41074 | 15.711 | 1279.7 | 29.49 | – | 2.375
300.65 K | 1025.63 | 1.40959 | 15.448 | 1270.5 | 29.23 | – | 2.221
303.15 K | 1022.89 | 1.40843 | 15.18 | 1261.2 | 28.88 | 0.436 | 2.081
305.65 K | 1020.15 | 1.40729 | 14.917 | 1251.9 | 28.64 | – | 1.955
308.15 K | 1017.4 | 1.40615 | 14.639 | 1242.6 | 28.42 | 0.603 | 1.838
310.65 K | 1014.64 | 1.40501 | 14.373 | 1233.3 | 28.12 | – | 1.733
313.15 K | 1011.88 | 1.40381 | 14.107 | 1224 | 27.84 | 0.829 | 1.636
315.65 K | 1009.12 | 1.40267 | 13.843 | 1214.7 | 27.46 | – | 1.547
318.15 K | 1006.34 | 1.40152 | 13.573 | 1205.4 | 27.19 | 1.142 | 1.466
320.65 K | 1003.57 | 1.40036 | 13.298 | 1196.1 | 26.92 | – | 1.391
323.15 K | 1000.78 | 1.39918 | 13.045 | 1186.8 | 26.65 | 1.536 | 1.321
325.65 K | 997.99 | 1.39798 | 12.786 | 1177.6 | 26.29 | – | 1.255
328.15 K | 995.193 | 1.39684 | 12.538 | 1168.4 | 26.08 | 2.015 | 1.196
330.65 K | 992.389 | 1.3956 | 12.286 | 1159.1 | 25.92 | – | 1.14
333.15 K | 989.579 | 1.39448 | 12.044 | 1149.9 | 25.48 | 2.717 | 1.087
335.65 K | 986.763 | 1.3933 | 11.787 | 1140.7 | 25.32 | – | 1.037
338.15 K | 983.942 | 1.39215 | 11.495 | 1131.6 | 25.05 | 3.523 | 0.9907
343.15 K | – | – | – | – | – | 4.591 | –
348.15 K | – | – | – | – | – | 5.851 | –
353.15 K | – | – | – | – | – | 7.323 | –
358.15 K | – | – | – | – | – | 9.29 | –
363.15 K | – | – | – | – | – | 11.49 | –
368.15 K | – | – | – | – | – | 14.19 | –
373.15 K | – | – | – | – | – | 17.37 | –
378.15 K | – | – | – | – | – | 21.11 | –
383.15 K | – | – | – | – | – | 25.51 | –
388.15 K | – | – | – | – | – | 30.62 | –
393.15 K | – | – | – | – | – | 36.24 | –
398.15 K | – | – | – | – | – | 42.71 | –
403.15 K | – | – | – | – | – | 50.4 | –
408.15 K | – | – | – | – | – | 59.11 | –
413.15 K | – | – | – | – | – | 69.13 | –
418.15 K | – | – | – | – | – | 80.2 | –
423.15 K | – | – | – | – | – | 92.51 | –

CCCCOC(=O)C(C)O (configuration not stated) [butyl 2-hydroxypropanoate]
Conditions | mass density, [1] [kg/m3] | refractive index, [2] | relative permittivity, [3] | speed of sound, [1] [m/s] | surface tension liquid-gas, [1] [mN/m] | vapor or sublimation pressure, [1] [kPa] | viscosity, [1] [mPa·s]
278.15 K | 996.896 | – | 11.488 | 1357.2 | 30.07 | – | 6.496
280.65 K | 994.466 | – | 11.323 | 1348.2 | 29.86 | – | 5.873
283.15 K | 992.023 | 1.42578 | 11.164 | 1339.1 | 29.65 | – | 5.333
285.65 K | 989.578 | 1.42472 | 11.046 | 1330.1 | 29.42 | – | 4.86
288.15 K | 987.126 | 1.4237 | 10.912 | 1321.2 | 29.14 | – | 4.446
290.65 K | 984.671 | 1.42259 | 10.769 | 1312.2 | 28.93 | – | 4.077
293.15 K | 982.212 | 1.4215 | 10.593 | 1303.2 | 28.72 | – | 3.753
295.65 K | 979.75 | 1.42038 | 10.428 | 1294.1 | 28.38 | – | 3.466
298.15 K | 977.283 | 1.41928 | 10.298 | 1285 | 28.15 | – | 3.207
300.65 K | 974.813 | 1.41815 | 10.158 | 1276 | 27.87 | – | 2.978
303.15 K | 972.337 | 1.41703 | 10.024 | 1266.9 | 27.64 | 0.102 | 2.773
305.65 K | 969.859 | 1.4159 | 9.87 | 1257.8 | 27.38 | – | 2.588
308.15 K | 967.374 | 1.41477 | 9.695 | 1248.8 | 27.16 | 0.149 | 2.423
310.65 K | 964.888 | 1.41366 | 9.583 | 1239.8 | 26.92 | – | 2.272
313.15 K | 962.397 | 1.41252 | 9.411 | 1230.8 | 26.68 | 0.201 | 2.134
315.65 K | 959.903 | 1.41139 | 9.273 | 1221.7 | 26.42 | – | 2.011
318.15 K | 957.407 | 1.41026 | 9.165 | 1212.8 | 26.1 | 0.273 | 1.897
320.65 K | 954.908 | 1.4091 | 9.002 | 1203.8 | 25.89 | – | 1.793
323.15 K | 952.408 | 1.40797 | 8.844 | 1194.9 | 25.7 | 0.371 | 1.695
325.65 K | 949.904 | 1.40682 | 8.699 | 1185.9 | 25.43 | – | 1.607
328.15 K | 947.397 | 1.40572 | 8.545 | 1177 | 25.14 | 0.511 | 1.526
330.65 K | 944.885 | 1.40441 | 8.418 | 1168 | 24.92 | – | 1.45
333.15 K | 942.369 | 1.40341 | 8.286 | 1159.1 | 24.67 | 0.679 | 1.379
335.65 K | 939.848 | 1.40226 | 8.164 | 1150.3 | 24.41 | – | 1.315
338.15 K | 937.324 | 1.40114 | 8.047 | 1141.5 | 24.16 | 0.899 | 1.257
343.15 K | – | – | – | – | – | 1.192 | –
348.15 K | – | – | – | – | – | 1.541 | –
353.15 K | – | – | – | – | – | 1.979 | –
358.15 K | – | – | – | – | – | 2.502 | –
363.15 K | – | – | – | – | – | 3.224 | –
368.15 K | – | – | – | – | – | 4.057 | –
373.15 K | – | – | – | – | – | 5.075 | –
378.15 K | – | – | – | – | – | 6.271 | –
383.15 K | – | – | – | – | – | 7.753 | –
388.15 K | – | – | – | – | – | 9.531 | –
393.15 K | – | – | – | – | – | 11.64 | –
398.15 K | – | – | – | – | – | 14.12 | –
403.15 K | – | – | – | – | – | 17 | –
408.15 K | – | – | – | – | – | 20.43 | –
413.15 K | – | – | – | – | – | 24.39 | –
418.15 K | – | – | – | – | – | 29.2 | –
423.15 K | – | – | – | – | – | 34.6 | –
428.15 K | – | – | – | – | – | 40.78 | –
433.15 K | – | – | – | – | – | 47.9 | –
438.15 K | – | – | – | – | – | 55.97 | –
443.15 K | – | – | – | – | – | 65.3 | –
448.15 K | – | – | – | – | – | 75.81 | –
453.15 K | – | – | – | – | – | 87.7 | –
